# Literature values as cited in patent publication US12622907B2, “Hair loss therapy” (NIRMANA BIO, INC., priority 2021, dated 2026).
# Read-outs that look alike come from different tables or passages of the source.
# How the values were obtained:
# [1] = system: men with male pattern hair loss; conditions: oral 1 mg/day
# 943 women and 461 men = conditions: for subjects who had to stop treatment because of a side effect: low doses used for hair loss
Compound,"recipients with no further hair loss compared with baseline (hair counts) ([1]; men with vertex hair loss, after 2 years)","recipients with improvement in hair growth in global photographs ([1]; men with vertex hair loss, at 1 year)","recipients with improvement in hair growth in global photographs ([1]; men with vertex hair loss, at 2 years)",effect on hair growth and hair loss ([1]; significant proportion of men with male pattern hair loss),frequency of side effects (943 women and 461 men; low doses which are used to treat hair loss),subjects who had to stop treatment because of a side effect (943 women and 461 men; men (461)),subjects who had to stop treatment because of a side effect (943 women and 461 men; women (943))
"CC(C)(C)NC(=O)[C@H]1CC[C@H]2[C@@H]3CC[C@H]4NC(=O)C=C[C@]4(C)[C@H]3CC[C@]12C [finasteride, Finasteride]",83%,48%,66%,promotes hair growth and prevents further hair loss,–,–,–
"Nc1cc(N2CCCCC2)nc(N)[n+]1[O-] [minoxidil, Minoxidil]",–,–,–,–,very uncommon,0.5%,2.5%
